The term IC50 denotes the concentration that inhibits the measured activity by half. In general, EC50 refers to the concentration at which the effect is half-maximal. What is called half-life is how long it takes for the measured level to halve. Higher therefore signals slow loss. Usually inhibition stands for how much of the control response was suppressed.

SMILES strings stand for the structures.

In data set [1] the target is T1, Monocarboxylate transporter 1 (Rattus norvegicus, UniProt P53987).
T1 sequence (P53987 whole entry): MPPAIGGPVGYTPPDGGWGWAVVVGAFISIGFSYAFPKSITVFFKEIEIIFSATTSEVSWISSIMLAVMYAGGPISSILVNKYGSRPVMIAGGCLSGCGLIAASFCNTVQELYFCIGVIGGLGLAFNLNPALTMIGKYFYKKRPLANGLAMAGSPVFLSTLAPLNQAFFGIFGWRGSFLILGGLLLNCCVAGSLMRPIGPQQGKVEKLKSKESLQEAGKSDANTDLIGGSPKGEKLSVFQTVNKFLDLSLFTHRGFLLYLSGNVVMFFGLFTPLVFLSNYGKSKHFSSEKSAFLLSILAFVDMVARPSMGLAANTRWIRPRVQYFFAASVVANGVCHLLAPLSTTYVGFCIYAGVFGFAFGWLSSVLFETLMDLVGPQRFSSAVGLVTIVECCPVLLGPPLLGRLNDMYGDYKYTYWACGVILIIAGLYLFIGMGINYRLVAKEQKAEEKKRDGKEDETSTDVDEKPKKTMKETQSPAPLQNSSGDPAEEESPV
In words: Inhibition of MCT1 in rat RBE4 cells assessed as reduction in [14C]lactate uptake measured after 15 mins by liquid scintillation counting analysis. In kind it is cell-based.

Data set [2] deals with Raji. In words: Cytotoxicity against human Raji cells. In kind it is functional, cell-based.
Data set [3] in a line: Half life in human. In kind it is ADME.
The test system of data set [4] is MIA PaCa-2. In words: Antitumor activity against human MIA PaCa-2 cells xenografted in ip dosed mouse assessed as prolongation of animal's mean life span. The class given is functional. (A xenograft is tissue or cells of one species grown in another, often human tumour cells in immunodeficient mice.)
Data set [5] concerns BXPC-3. In words: Antitumor activity against human BXPC-3 cells xenografted in ip dosed mouse assessed as prolongation of animal's mean life span. The class given is functional.
Data set [6] can be described thus: Drug metabolism in Sprague-Dawley rat plasma at 10 uM measured after 8 hrs. In kind it is ADME, cell-free, Sprague-Dawely. To be noted: read-out: Drug metabolism.
Data set [7] deals with T2, Large neutral amino acids transporter small subunit 1 (Homo sapiens, UniProt Q01650). In words: Inhibition of LAT1 (unknown origin) expressed in astrocytes assessed as inhibition of [14C]phenylalanine uptake at 50 uM. In kind it is cell-based. To be noted: Astrocyte.
In data set [8] the target is T2, Large neutral amino acids transporter small subunit 1. In words: Inhibition of LAT1 (unknown origin) expressed in S2 cells assessed as inhibition of [14C]phenylalanine uptake at 50 uM. The class given is cell-based.
In data set [9] the test system is MCF7. Briefly: Antiproliferative activity against human MCF7 cells assessed as inhibition of cell growth. The class given is functional, cell-based.
Data set [10] concerns the target T2, Large neutral amino acids transporter small subunit 1. In words: Inhibition of LAT1 in human MCF7 cells assessed as inhibition of leucine uptake. The class given is cell-based.

T2 sequence (Q01650 whole entry): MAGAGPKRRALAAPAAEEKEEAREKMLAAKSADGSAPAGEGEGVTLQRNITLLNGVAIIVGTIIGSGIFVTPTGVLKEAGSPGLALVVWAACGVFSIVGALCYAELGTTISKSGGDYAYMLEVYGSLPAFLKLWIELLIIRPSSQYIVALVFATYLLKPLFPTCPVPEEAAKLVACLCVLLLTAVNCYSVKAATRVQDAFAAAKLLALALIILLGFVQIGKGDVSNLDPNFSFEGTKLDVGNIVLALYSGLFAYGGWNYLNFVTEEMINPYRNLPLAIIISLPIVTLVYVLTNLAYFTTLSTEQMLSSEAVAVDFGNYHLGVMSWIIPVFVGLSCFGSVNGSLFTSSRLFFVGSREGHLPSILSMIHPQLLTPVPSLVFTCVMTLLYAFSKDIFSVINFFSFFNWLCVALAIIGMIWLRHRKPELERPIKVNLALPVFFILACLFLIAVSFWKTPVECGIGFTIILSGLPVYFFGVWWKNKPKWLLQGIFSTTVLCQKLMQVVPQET

Turning to `CC(C)c1ccc(/C=C(\C#N)C(=O)O)cc1`, the IC50 in [1] was 66 nM.

As for `CC(C)Cc1nn(C)c(=O)c2c(SCCCO)n(Cc3cc(NCCCCCNC(=O)[C@H](N)CCC(N)=O)nc4ccccc34)cc12`, in data set [2], the EC50 was 0.8 nM.

Compound `CC(C)Cc1nn(C)c(=O)c2c(SCCCO)n(Cc3ccc(C#CCCCNC(=O)[C@H](N)CCC(N)=O)c4ccccc34)cc12` displayed an EC50 in data set [2] of 4 nM.

The compound `CC(C)Cc1nn(C)c(=O)c2c(SCCCO)n(Cc3cnc(NCCCCCN)c4ccccc34)cc12` returned an EC50 in [2] of 0.8 nM.

For `CC(C)Cc1nn(C)c(=O)c2c(SCCCO)n(Cc3cnc(NCCCCCNC(=O)[C@H](N)CCC(N)=O)c4ccccc34)cc12`, the EC50 in [2] came to 0.16 nM.

Consider `Nc1ccn([C@@H]2O[C@H](CO)[C@@H](O)C2(F)F)c(=O)n1` [GEMCITABINE], for which the half-life in data set [3] was found to be 9 min.

In the case of `Nc1cc(COc2c(Cl)cc(CC(N)C(=O)O)cc2Cl)c2oc(-c3ccccc3)nc2c1` (stereo not given), the ILS in data set [4] stood at 14 days; in data set [5] it was 10 days.

For `C[C@@H](O)[C@H](Nc1ccn([C@@H]2O[C@H](CO)[C@@H](O)C2(F)F)c(=O)n1)C(=O)O`, in [6], the metabolised at 8 h, 10 µM was determined as 20%.

With `N#C/C(=C\c1ccc(O)cc1)C(=O)O` [alpha-CYANO-4-HYDROXYCINNAMIC ACID], the IC50 in data set [1] came out at 281 nM.

As for `NC(Cc1cc(I)c(Oc2ccc(O)c(I)c2)c(I)c1)C(=O)O` (stereo not given), the inhibition in data set [7] and in data set [8] was 90% each time.

On to `CC(C)Cc1nn(C)c(=O)c2c(SCCCO)n(Cc3ccc(C#CCCCOc4ccc(C[C@H](N)C(=O)O)cc4)c4ccccc34)cc12`, for which a half-maximal effect in [2] (EC50) was put at 0.8 nM.

As for `CNC(=O)COc1ccc(C2=C(C#N)C3N=C4C=CC=CC4N3C(NC(=O)c3cccc(C[C@H](N)C(=O)O)c3)=C2C#N)cc1` (stereo not given in full), the IC50 was 124000 nM in data set [9] and 18200 nM in data set [10].
